Values of other authors as cited in US10993951B2, “Fosfomycin formulation for parenteral administration” (priority 2016, dated 2021).
Counter-ions that a name gives are not always drawn.

Settings: cited from earlier work

## C[C@@H]1O[C@@H]1P(=O)(O)O [Fosfomycin disodium salt, fosfomycin disodium salt]
  solubility in water: highly soluble
